Assays:
[1] = Plasma levels of risperidone in scPCP and ARS-treated mice (mass spectrometer); assay type: in vivo; details: 3 mg/kg pimavanserin with 0.2 mg/kg risperidone
Procedure: The behavioral assay, ARS protocol, and scPCP-treatment as described in Example 2 were used. To test the effect of atypical APD and pimavanserin, alone or as con-administration, in scPCP-treated mice (N=10 pairs of mice per group) given 2 h ARS, risperidone (“Risp”) was administered as 0.2 mg/kg or 0.4 mg/kg ip; olanzapine (“Olan”) as 1.0 mg/kg ip; aripiprazole (“Aripi”) as 1.0 mg/kg ip; and pimavanserin (“Pim”) as 3 mg/kg ip to scPCP+ARS(2h) treated male C57BL/6J mice 45 minutes prior to the commencement of the social interaction task in the 10 min social interaction test. Plasma levels of risperidone were measured using a Triple Quad 6500+ mass spectrometer.

[2] = test system: scPCP-treated C57BL/6J mice; assay: 10-min social interaction test in scPCP-treated mice; assay type: in vivo; details: pimavanserin 3 and 6 mg/kg ip, alone
Procedure: Negative symptoms model: The behavioral assay utilized to assess negative symptoms was social interaction (SI) task.
Briefly, mice were habituated to the test arena (i.e., the NOR box) for 30 minutes prior to the test day. Pairs of mice, unfamiliar to each other, received either the same treatment (e.g., vehicle and vehicle; N=10 pairs) or different treatments (e.g., vehicle; N=10 and phencyclidine (PCP) 10 mg/kg; N=10). After washout, they were placed in the test arena together for 10 minutes. A heavy object made of Plexiglas or metal was placed in the center of the test arena to quantify the time and nature of interaction of the test animals with an unfamiliar object or an unfamiliar animal. After the 10 min test phase, the object and the arena were cleaned with 70% ethanol to remove any olfactory trails. Behavior was recorded on video for subsequent blind scoring.
The following four behaviors were scored for each animal: • a) Sniffing: A normal mouse engages in sniffing the con-specific mouse's body, including the anogenital area • b) Following: A normal mouse pursues a con-specific mouse around the arena • c) Avoiding: A normal mouse avoids the con-specific mouse and move away from a pursuing mouse if approached • d) Object Exploration: A normal mouse explores the object that is placed in the center of the test arena.
scPCP treatment involved intraperitoneal injection (ip) of 10 mg/kg PCP to male C57BL/6J mice, twice daily (bid) for 7 days, followed by 7 days washout. To test the effect of atypical APD or pimavanserin in scPCP-treated mice (N=10 pairs of mice per group), risperidone was administered as 0.05 mg/kg ip or 0.2 mg/kg ip; and pimavanserin was administered as 3 mg/kg ip or 6 mg/kg ip to scPCP-treated mice 45 minutes prior to the commencement of the social interaction task in the 10 min social interaction test.

[3] = test system: subjects with schizophrenia who have predominant negative symptoms; assay: Phase 2, 26-week adjunctive pimavanserin study: safety; assay type: in vivo, human; details: 26-week study
Procedure: This study is conducted as a Phase 2, 26-week, randomized, double-blind, placebo-controlled, multicenter, multinational outpatient study in subjects with schizophrenia who have predominant negative symptoms while on adequate treatment with an antipsychotic. Schizophrenia is defined by the Diagnostic and Statistical Manual of Mental Disorders, Fifth Edition (DSM-5), confirmed by a customized module of the Structured Clinical Interview for DSM-5, Clinical Trials Version (SCID-5-CT). This study enrolls approximately 403 subjects with predominant negative symptoms of schizophrenia. In the study, patients were randomized to receive either pimavanserin or placebo added to their current background antipsychotic treatment for 26 weeks in duration. At baseline all patients were started on a daily dose of 20 mg of pimavanserin or placebo with dose adjustments allowed up to 34 mg or down to 10 mg during the first eight weeks of treatment. […]
Safety will be evaluated by analyses of adverse events, vital signs, ECGs, physical examination results, and clinical laboratory tests (including urinalysis), and the Abnormal Involuntary Movement Scale (AIMS), the Barnes Akathisia Rating Scale (BARS), the Simpson-Angus Extrapyramidal Side Effects Scale (SAS), and the Columbia Suicide Severity Rating Scale (C-SSRS).

Structure (SMILES): CC(C)COc1ccc(CNC(=O)N(Cc2ccc(F)cc2)C2CCN(C)CC2)cc1 [Pimavanserin, N-(4-Fluorophenylmethyl)-N-(1-methylpiperidin-4-yl)-N′-(4-(2-methylpropyloxy)phenylmethyl)carbamide]
- Pharmacokinetic effect of pimavanserin on risperidone drug levels [1]: not due to a pharmacokinetic effect
- Restoration of SI deficit in scPCP-treated mice [2]: did not restore SI deficit
- Vital signs, weight, metabolic syndrome, and extrapyramidal symptoms compared to adjunctive placebo [3]: did not result in clinically significant differences
- Rate of adverse events ([3]; adjunctive pimavanserin): 40%

Source: patent US20220288048A1, “PIMAVANSERIN FOR TREATING SCHIZOPHRENIA OR FOR TREATING PSYCHOSIS SECONDARY TO NEURODEGENERATIVE DISORDERS OR DEPRESSIVE DISORDER” (ACADIA Pharmaceuticals Inc., priority 2019, published 2022)
